In patent publication US20080031868A1, “HUMAN LYSOZYME MEDICINE, ITS MANUFACTURING METHOD AND APPLICATION THEREOF” (priority 2005, published 2008):

Key:
HELA cell = test: Toxicity to HELA cell (CPE, Reed-Muench)
Protocol: 1. Determination of the Toxicity of Recombinant Human Lysozyme to HELA Cell:
HELA cells were seeded on 96-well culture plates at the concentration of 400,000/mi and grown at 37° C. in a 5% CO2 incubator for 2 hours. 100 μl recombinant human lysozyme which were double-diluted from 6000 ug/ml to 11.7 ug/ml and positive reference medicine which were double-diluted from 6000 ug/ml to 11.7 ug/ml were respectively added to 3 wells per concentration. At the same time the reference cells were cultivated at 37° C. in a 5% CO2 incubator for 6 days. Inverted microscope was used everyday to observe the cytopathic effect (CPE). The cytopathic effect under 25% was recorded as “+”, the cytopathic effect under 26%˜50% was recorded as “++”, the cytopathic effect under 51%˜75% was recorded as “+++” and the cytopathic effect under 76%˜100% was recorded as “++++”. Drug median toxic dose (TD50) and minimum toxic dose (TD0) were calculated by using Reed-Muench method.

[1] = test system: bronchus pneumonia of mice by sucking the hydrochloric acid; test: Bronchus pneumonia (bronchus lung injury) of mice by sucking atomized hydrochloric acid; assay type: in vivo, Kunming mice
Protocol: D. The effect of human lysozyme to bronchus pneumonia of mice by sucking the hydrochloric acid:
50 mice were equally divided to 5 groups at random, selecting randomly 4 groups among them to make the model of the mice atomized hydrochloric acid.
Each batch of 10 mice was put in Glass desiccator which equipped the self-made atomizer contained 1 N HCI solution. The principle of electronic supra-frequency shaker was used to atomizate hydrochloric acid, then it was inspired for 1 hour by mice to make model of inspiring bronchus lung injury. Its mechanism is that inspiring acidoid can cause adhesion of leucocyte and increasing expression of ICAM-1 and permeability of endotheliocyte and cellula epithelialis to protein, thereby to cause pneumochysis. Otherwise inspiring acidoid can cause the release of phlegmonosis cytokine. Assembling in lung and reciprocal activation of these cytokine and neutrophilic leukocyte can induce cell adhesion and tissue damage.
40 mice models were gathered and then randomly divided to 4 groups. 3 groups were treated with drug, 1 group were treated as model group.
The concentration of recombinant human lysozyme medicine was set at 15000 u/ml in clinical atomization therapy. The dose was 15000 u per time once daily, I.e 0.5 mg per time. The dose was 1.3×10^−3mg a mice (calculated by weight of 20 g). Human ventilatory capacity (9000 ml/min) corresponded with 375 times of mice ventilatory capacity (24 ml/min). Human single dose (0.5 mg/70 kg) corresponded with 384 times of mice dose (1.3×10^−3 mg/20 g). Two folds between ventilatory capacity and single dose were closed, so clinical human dose was used for atomization therapy of mice. Availability of clinical inspiring lysozyme atomized was higher than breathing amount of mice by itself in atomizer. To ensure the breathing amount of lysozyme, the breathing time were extended for 1 hour. Based on 0.5 mg/ml as low dose, the concentration of 1.0 mg/ml and 2.0 mg/ml were set respectively as middle and high dose. The mice were put into the glass desiccator and then treated with human lysozyme atomized in the compression sprayer (PARL.BOY) once daily, and continued 5-10 days (shown in FIG. 2).
As atomization was treated to the 5th and 10th day, half animals (5) of every group were dissected, then the lung tissues were weighed and the lung coefficients were calculated according to the weight. Pathological changes of appearance and the lung tissue were observed respectively by naked eye and pathological section.

No. 04 Coronavirus [2] = test: Inhibition on No. 04 Coronavirus in HELA cells (CPE method); assay type: cell-based
Protocol: HELA cells were seeded on 96-well cultivation plates at the concentration of 400,000/ml and grown to monolayer at 37° C. in 5% CO2 incubator for 24 hours. After removal of cultivation liquid, coronavirus liquid were added to HELA cells and absorbed at 37° C. in 5% CO2 incubator for 2 hours. […] At the same time reference cells and reference virous were cultivated at 37° C. in 5% CO2 incubator for 5 to 7 days. Inverted microscope was used everyday to observe the cytopathic effect (CPE) of virus. The determination were ended according to the appearance of “+++-++++”. […] The determination was repeated three times.

[3] = test system: drug-resistant suppurative streptococcus; test: Amygdalitis model of mice, upper respiratory tract infection; assay type: in vivo
Excerpt: C. The preparation of the amygdalitis model of mice infected by the drug-resistant suppurative streptococcus with the upper respiratory tract:
10 healthy Kunming mice (18˜22 g), male and female, infected by the drug-resistant suppurative streptococcus with the upper respiratory tract in way of spraying which induce the amygdalitis of mice, then promptly suck aerosol (powder or liquid) according to 30000 u/ml/20 g and give medicines three times a day. Observe for one week after infecting and record the efficient rate of mice. […]

No. 04 Coronavirus [4] = test: organism not typed; assay type: cell-based
Protocol: HELA cells were seeded on 96-well cultivation plates at the concentration of 400,000/ml and grown to monolayer at 37° C. in 5% CO2 incubator for 24 hours. […] Then 100 TCID50coronavirus liquid were added to HELA cells. At the same time reference cell and reference virous were cultivated at 37° C. in 5% CO2 incubator for 5 to 7 days. At the same time normal cell reference and virous reference were cultivated at 37° C. in 5% CO2 incubator for 5 to 7 days. Inverted microscope was used everyday to observe the cytopathic effect (CPE) of virus. The determination were ended according to the appearance of “+++-++++”. […] The determination was repeated three times.

[5] = test system: drug-resistant suppurative streptococcus; test: Acute or chronic suppurative faucitis model of mice, upper respiratory tract infection; assay type: in vivo
Excerpt: B. Preparation of the acute or chronic suppurative faucitis model of little mice infected by the drug-resistant suppurative streptococcus with the upper respiratory tract:
10 healthy Kunming mice (18˜22 g), male and female, were infected by the drug-resistant suppurative streptococcus with the upper respiratory tract in way of spraying which induced the acute or chronic suppurative faucitis of mice, and then promptly treated with aerosol (powder or liquid) at the dose of 30000 u/ml/20 g and give medicines three times a day. Observe for one week after infecting and record the efficient rate of mice. […]

[6] = high dosage 2.0 mg/ml, atomization treated for 5 days
[7] = high dosage 2.0 mg/ml, atomization treated for 10 days
[8] = low dosage 0.5 mg/ml, atomization treated for 5 days
[9] = low dosage 0.5 mg/ml, atomization treated for 10 days
[10] = median dosage 1.0 mg/ml, atomization treated for 5 days
[11] = median dosage 1.0 mg/ml, atomization treated for 10 days
[12] = inhibition: drug added after virus absorbed 2 hours, mean of thrice test
[13] = 10 mice, aerosol 30000 u/ml/20 g three times a day, one week
[14] = atomized solution and inhalation
[15] = prevention: drug absorbed 2.5 hours before 100 TCID50 virus, mean of thrice test

Human lysozyme: gene recombinant Human Lysozyme (HLZ), active unit 30000 u/mg, batch number 020110; given atomized / as aerosol
median toxic dose (TD50) (HELA cell): 1500 ± 0 µg/mL | minimum toxic dose (TD0) (HELA cell): 750 ± 0 µg/mL | effect on mice model of bronchus lung injury caused by inspiring hydrochloric acid ([1]; atomization): validated effective | Lung coefficient (g/g) × 10^−3 [1, 6]: 9.1 ± 1.00 (g/g) × 10^−3 | Weight [1, 6]: 29.4 ± 3.3 g | Lung coefficient (g/g) × 10^−3 [1, 7]: 8.32 ± 1.84 (g/g) × 10^−3 | Weight [1, 7]: 31.2 ± 2.0 g | pathohistology observation of bronchiole and bronchia in lung ([1]; high dosage group, 5 days): little infiltration of a few monocytes and lymphocytes in bronchus between lobules, and a few phlegmasia cells and secretion in part bronchioles | pathological section: animals changed pathologically ([1]; high dosage group, 5 days): 2/5 | pathological section: animals normal ([1]; high dosage group, 5 days): 3/5 | Lung coefficient (g/g) × 10^−3 [1, 8]: 7.30 ± 0.43 (g/g) × 10^−3 | Weight [1, 8]: 29.6 ± 1.6 g | Lung coefficient (g/g) × 10^−3 [1, 9]: 7.10 ± 0.61 (g/g) × 10^−3 | Weight [1, 9]: 30.7 ± 3.0 g | pathohistology observation of bronchiole and bronchia in lung ([1]; low dosage group, 5 days): two spalling of epithelium mucosae in bronchioles and bronchia of one lung tissue, a little erythrocytes in bronchiole lumina of another lung tissue, and normality in the others | pathological section: animals kept normally ([1]; low dosage group, 5 days): 4/5 | Lung coefficient (g/g) × 10^−3 [1, 10]: 7.8 ± 0.65 (g/g) × 10^−3 | Weight [1, 10]: 29.2 ± 2.4 g | Lung coefficient (g/g) × 10^−3 [1, 11]: 8.30 ± 1.40 (g/g) × 10^−3 | Weight [1, 11]: 30.6 ± 2.2 g | pathohistology observation of bronchiole and bronchia in lung ([1]; median dosage group, 5 days): little infiltration of a few monocytes and lymphocytes around part bronchioles, intactness of upper strata wall of most bronchioles tunica mucosa, spalling of a few epithelium mucosae | pathological section: animals kept normally ([1]; median dosage group, 5 days): 5/5 | therapeutic index (TI) (No. 04 Coronavirus [2]; inhibition: drug added after virus): 16 | median inhibitory concentration (IC50) (No. 04 Coronavirus [2]; [12]): 23.4 ± 0 µg/mL | minimum inhibitory concentration (MIC) (No. 04 Coronavirus [2]; [12]): 46.8 ± 0 µg/mL | Efficient % [3, 13]: 100% | Healing [3, 13]: 8 | Invalid [3, 13]: 0 | Valid [3, 13]: 2 | curative effect to the amygdalitis of mice [3, 14]: obvious curative effect | median inhibitory concentration (IC50) (No. 04 Coronavirus [4]; [15]): 5.9 ± 0 µg/mL | minimum inhibitory concentration (MIC) (No. 04 Coronavirus [4]; [15]): 11.7 ± 0 µg/mL | therapeutic index (TI) (No. 04 Coronavirus [4]; prevention: drug before virus): 64 | Efficient % [5, 13]: 100% | Healing [5, 13]: 8 | Invalid [5, 13]: 0 | Valid [5, 13]: 2 | curative effect to acute or chronic suppurative faucitis of mice [5, 14]: obvious curative effect
